These results are taken from patent US7807659B2, “Caspase inhibitors and uses thereof” (Vertex Pharmaceuticals Incorporated, priority 2001, dated 2010).

Square brackets hold non-standard residues; d marks the D form. Peptide text beside a SMILES is read from it. * marks the point of attachment. ξ: configuration not given here. Pip = O=C(O)[C@@H]1CCCCN1; ξD = NC(CC(=O)O)C(=O)O; Bz = O=C(c1ccccc1)*; CH2F = FC*

What all share (format): cell-based
For assay [1], the system named is IL-1β secretion from peripheral blood mononuclear cells. The assay is described as follows: Inhibition of IL-1β secretion from mixed population of peripheral blood mononuclear cells (PBMC). To be noted: human PBMC, mature IL-1β in supernatant. The source says: Processing of pre-IL-1β by caspase-1 can be measured in cell culture using a variety of cell sources. Human PBMC obtained from healthy donors provides a mixed population of lymphocyte and mononuclear cells that produce a spectrum of interleukins and cytokines in response to many classes of physiological stimulators. The assay conditions used for inhibition of IL-1β secretion from mixed population of peripheral blood mononuclear cells can be found in WO01/42216.
The inhibitory potency of the compounds can be represented by an IC50 value, which is the concentration of inhibitor at which 50% of the mature IL-1β is detected in the supernatant as compared to the positive controls.

The subject of assay [2] is TNF-alpha. Nature of the assay: Inhibition of TNF release from whole blood (LPS induced). To be noted: Homo sapiens, LPS 5 ng/ml, overnight, ELISA. Here is the method: Human blood was freshly drawn from healthy donors and collected in vacutainers. Blood was diluted 1:2 in PBS (tissue culture, pyrogen free) in a sterile bottle and inverted to mix well. Aliquots of 0.5 ml of blood mixture were dispensed into cluster tubes in 96 well format.
Dilutions of the test compounds were prepared in RPMI by taking 100 mM DMSO stocks of the compounds and diluting 1:10 in RPMI medium in eppendorfs, to give a 10 mM stock. 1:5 serial dilutions were prepared from the stock solutions.
LPS was kept at a frozen stock (−20 degrees C.) at 1 mg/ml in PBS and then diluted to 1:10 with RPMI medium and finally diluted in the medium again 1:350. 50 μl of each test compound (first concentration was 100 μM) were added to the blood samples and then stimulated with 10 μl LPS (final concentration in the well is 5 ng/ml). The contents were gently mixed using an 8 well multi-channel pipette and incubated at 37° C. over night. At the end of the incubation time, contents were gently mixed, then spun down at 1000×g for 5 mins at 20° C. The serum supernatants were transferred to a fresh plate without disturbing the RBCs and diluted 1:2 with the diluent RD6C.
TNF-alpha levels of supernatants were assayed using the R+D systems ELISA kit, using R+D systems protocol. Samples were read at 450 nm.
For orientation: ELISA stands for enzyme-linked immunosorbent assay.

The subject of assay [3] is caspase-8-mediated apoptotic pathway (Fas induced apoptosis). The assay is described as follows: Anti-Fas induced apoptosis assay. An excerpt: Cellular apoptosis can be induced by the binding of Fas ligand (FasL) to its receptor, CD95 (Fas). Conditions for an assay to measure the effect of compounds on the inhibition of the caspase-8-mediated apoptotic pathway can be found in WO01/42216.

For `O=C(O)CC(NC(=O)[C@@H]1CCCCN1C(=O)c1ccc(-c2cccc(C(F)(F)F)c2)o1)C(=O)CF` (stereo partly drawn) [Compound 10, [3S/R,(2S)]-5-Fluoro-4-oxo-3-[1-[2-(3-trifluoromethyl-phenyl)-furan-4-carbonyl]-2-piperidinecarboxamido]-pentanoic acid], the IC50 – broadly, the concentration needed to halve the response being measured – was < 0.5 µM in assay [1], 5.04 µM in assay [2] (exact value in brackets) and < 6 µM in assay [2] (stated as bound).
Consider `O=C(O)CC(NC(=O)[C@@H]1CCCCN1C(=O)c1ccccc1)C(=O)CF` (stereo partly drawn) [Compound 3, [3S/R,(2S)]-5-Fluoro-4-oxo-3-[1-benzoyl-2-piperidinecarboxamido]-pentanoic acid] (Bz-[Pip]-[ξD]-CH2F), for which, in assay [3], the IC50 was < 0.05 µM.
